From patent US5336483A (priority 1993, dated 1994)
Entries after “also recorded” stand apart in the source; their conditions may differ. Like-named read-outs stand apart in the source and are kept apart here.

Key:
[1] = tested on: morphine-induced analgesia; experiment: In vivo antagonist activity: reversal of morphine-induced analgesia, rat paw withdrawal latency test; details: for paw withdrawal latency after i.v. injection / reversal of behavioral arrest and other opioid effects / duration of reversal: 5 mg/kg i.v.; for paw withdrawal latency after i.v. injection: tested within 5-10 min; for paw withdrawal latency after i.v. injection / duration of reversal: morphine-treated rats; for reversal of behavioral arrest and other opioid effects: morphine sulphate 10 mg/kg s.c.; for prodrug behaviour: acetate esters vs 1 and 2; for blood brain barrier penetration: i.v., inferred from reversal of morphine effects in rats; for antagonist potency in vivo (comparison in words): morphine induced paw withdrawal latency; for reversal of the effects of morphine: rat paw withdrawal latency test
Description: Assessment of the ability of compounds 1, 2 and 10, 12 to cross the blood brain barrier was tested in male Sprague-Dawley rats (300 g) acutely treated with morphine. […] A baseline paw withdrawal to a radiant thermal stimulus was obtained in unrestrained animals as described in Iadarola et al., Brain Res. 1988, 455, 205-212 and Hargreaves, Pain 1988, 32, 77-78. The stimulus was set to give a baseline withdrawal latency of approximately 10 sec. and the cutoff was at 18 sec. After baseline testing, morphine sulphate, 10 mg/kg, was injected subcutaneously in a volume of 0.1 ml of saline/100 g of body weight.
Ioxy (1) and epiloxy (2) were evaluated in rat and guinea pig brain membranes for their opiate receptor selectivity and potency. […] This comparison was not made during development of the ^18 F cyclofoxy compounds.

κ2 receptor = experiment: Displacement of [^3 H]BRM (bremazocine), κ2 receptor binding, guinea pig brain membranes depleted of μ and δ sites; details: for less potent (fold) than ioxy: [^3 H]BRM displacement
κ1 receptor = biological target: T1, κ1 receptor (Cavia porcellus, UniProt P41144); experiment: biochemical; type: binding, guinea pig
T1 construct: from tissue; host or cells: guinea pig brain membranes, pretreated with BIT and FIT

μ and κ2 receptor = experiment: Displacement of [^3 H]CycloFOXY, μ and κ2 receptor binding, rat brain lysed-P2 membranes
Low Affinity δ Receptors = experiment: Displacement of [^3 H]DADLE, low affinity δ receptors, rat lysed-P2 membranes; type: binding
[2] = biological target: T2, High Affinity δ Receptors (Rattus norvegicus, UniProt P33533); experiment: Displacement of [^3 H]DADLE, high affinity δ receptors, rat lysed-P2 membranes; type: binding; details: for IC50: read-out: IC50
T2 construct: and rat lysed-P2 membranes as previously described; from tissue; host or cells: rat lysed-P2 membranes (brain)

μ receptor = biological target: T3, μ receptor (Rattus norvegicus, UniProt P33535); experiment: Displacement of [^3 H]DAGO, μ receptor binding, rat lysed-P2 membranes; details: for N (slope factor) / lower affinity / less potent (fold) than ioxy: [^3 H]DAGO displacement
T3 construct: and rat lysed-P2 membranes as previously described; from tissue; host or cells: rat brain, lysed-P2 membranes
T3 sequence (P33535 whole entry): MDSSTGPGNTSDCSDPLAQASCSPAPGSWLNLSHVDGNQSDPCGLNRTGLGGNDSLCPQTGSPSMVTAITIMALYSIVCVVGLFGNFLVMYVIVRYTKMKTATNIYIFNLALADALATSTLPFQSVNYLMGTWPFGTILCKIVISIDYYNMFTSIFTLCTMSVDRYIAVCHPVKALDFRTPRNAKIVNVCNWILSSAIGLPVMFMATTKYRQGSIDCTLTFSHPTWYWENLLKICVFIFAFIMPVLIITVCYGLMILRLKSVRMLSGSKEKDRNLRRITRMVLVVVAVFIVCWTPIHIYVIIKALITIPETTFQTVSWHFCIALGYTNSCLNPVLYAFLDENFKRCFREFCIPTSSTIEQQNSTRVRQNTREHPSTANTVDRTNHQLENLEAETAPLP

T2 sequence (P33533 whole entry): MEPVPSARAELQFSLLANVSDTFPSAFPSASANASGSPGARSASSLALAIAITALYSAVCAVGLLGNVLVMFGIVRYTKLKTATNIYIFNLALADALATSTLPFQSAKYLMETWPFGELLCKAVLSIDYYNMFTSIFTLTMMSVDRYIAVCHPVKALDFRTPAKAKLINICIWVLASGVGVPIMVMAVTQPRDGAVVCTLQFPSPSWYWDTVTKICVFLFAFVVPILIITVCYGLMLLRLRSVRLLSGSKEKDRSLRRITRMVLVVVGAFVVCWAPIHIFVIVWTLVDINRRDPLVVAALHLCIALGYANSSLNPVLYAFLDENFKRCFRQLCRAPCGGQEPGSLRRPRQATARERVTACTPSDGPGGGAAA
T1 sequence (P41144 whole entry): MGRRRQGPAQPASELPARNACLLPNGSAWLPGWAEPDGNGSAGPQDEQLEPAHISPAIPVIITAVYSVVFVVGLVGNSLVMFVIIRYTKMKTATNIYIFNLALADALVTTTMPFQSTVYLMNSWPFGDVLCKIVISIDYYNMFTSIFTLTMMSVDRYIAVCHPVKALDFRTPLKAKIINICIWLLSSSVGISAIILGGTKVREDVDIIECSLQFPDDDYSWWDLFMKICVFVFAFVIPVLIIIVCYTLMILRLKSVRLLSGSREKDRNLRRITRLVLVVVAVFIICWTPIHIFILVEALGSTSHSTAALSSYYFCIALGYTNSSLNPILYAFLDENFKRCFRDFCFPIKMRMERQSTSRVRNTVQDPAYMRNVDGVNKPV

CC(=O)Oc1ccc2c3c1O[C@H]1[C@H](I)CC[C@@]4(O)[C@@H](C2)N(CC2CC2)CC[C@]314 [Compound 10, 3-Acetoxy-6β-Iodo-14-Hydroxy-17-Cyclopropylmethyl-4,5α-Epoxymorphinan]
paw withdrawal latency after i.v. injection [1]: returned to near baseline values
reversal of behavioral arrest and other opioid effects [1]: reversed in a matter of seconds
duration of reversal [1]: at least 40 min
prodrug behaviour [1]: served as prodrug forms of 1 and 2
blood brain barrier penetration [1]: getting into the brain; also recorded: penetrated the blood brain barrier more effectively
antagonist potency in vivo (comparison in words) [1]: more potent effects on morphine induced paw withdrawal latency than their corresponding phenolic counterparts
reversal of the effects of morphine [1]: complete reversal of the effects of morphine

CC(=O)Oc1ccc2c3c1O[C@H]1[C@@H](I)CC[C@@]4(O)[C@@H](C2)N(CC2CC2)CC[C@]314 [Compound 12, 3-Acetoxy-6α-Iodo-14-Hydroxy-17-Cyclopropylmethyl-4,5α-Epoxymorphinan]
paw withdrawal latency after i.v. injection [1]: returned to near baseline values
reversal of behavioral arrest and other opioid effects [1]: reversed in a matter of seconds
duration of reversal [1]: at least 40 min
prodrug behaviour [1]: served as prodrug forms of 1 and 2
blood brain barrier penetration [1]: getting into the brain; also recorded: penetrated the blood brain barrier more effectively
antagonist potency in vivo (comparison in words) [1]: more potent effects on morphine induced paw withdrawal latency than their corresponding phenolic counterparts
reversal of the effects of morphine [1]: complete reversal of the effects of morphine

Oc1ccc2c3c1O[C@H]1[C@H](Br)CC[C@@]4(O)[C@@H](C2)N(CC2CC2)CC[C@]314 [CycloBROXY, reference compound]
IC50 (κ2 receptor): 20.2 ± 1.2 nM
Ki (κ2 receptor): 7.21 nM
less potent (fold) than ioxy (κ2 receptor): 3 fold
IC50 (κ1 receptor): 0.7 ± 0.02 nM
Ki (κ1 receptor): 0.32 nM
N (slope factor) (κ1 receptor; [^3 H]U69,593 displacement): 1.03 ± .03
relative potency in words (κ1 receptor; [^3 H]U69,593 displacement): most potent displacers
IC50 (μ and κ2 receptor): 3.14 ± 0.11 nM
Ki (μ and κ2 receptor): 1.19 nM
relative affinity / potency in words (μ and κ2 receptor; [^3 H]CycloFOXY displacement): intermediate receptor affinity
IC50 (Low Affinity δ Receptors): 5.77 ± 0.14 nM
Ki (Low Affinity δ Receptors): 4.92 nM
Ki [2]: 1.96 nM
N (slope factor) ([2]; [^3 H]DADLE, high affinity δ): 0.99 ± .09
higher affinity (fold) ([2]; [^3 H]DADLE, high affinity δ): 6 fold
IC50 [2]: 4.3 nM
IC50 (μ receptor): 4.21 ± 0.14 nM
Ki (μ receptor): 1.23 nM
N (slope factor) (μ receptor): 1.05 ± .04
lower affinity / less potent (fold) than ioxy (μ receptor): about 1.5 fold

Oc1ccc2c3c1O[C@H]1[C@H](F)CC[C@@]4(O)[C@@H](C2)N(CC2CC2)CC[C@]314 [CycloFOXY, 6β-fluoro-3,14-dihydroxy-17-cyclopropyl methyl-4,5α-epoxymorphinan, reference compound]
kappa selectivity κ1/μ (κ1 receptor; ratio κ1/μ): 0.89

Oc1ccc2c3c1O[C@H]1[C@@H](I)CC[C@@]4(O)[C@@H](C2)N(CC2CC2)CC[C@]314 [EpilOXY, 6α-Iodo-3,14-Dihydroxy-17-Cyclopropylmethyl-4,5α-Epoxymorphinan]
IC50 (κ2 receptor): 23.7 ± 1.1 nM
Ki (κ2 receptor): 8.46 nM
less potent (fold) than ioxy (κ2 receptor): 3 fold
IC50 (κ1 receptor): 3.17 ± 0.06 nM
Ki (κ1 receptor): 1.49 nM
N (slope factor) (κ1 receptor): 1.10 ± .02
less potent (fold) than ioxy (κ1 receptor): 4 fold
IC50 (μ and κ2 receptor): 4.34 ± 0.19 nM
Ki (μ and κ2 receptor): 1.65 nM
reduction in affinity (fold) compared with ioxy (1) (μ and κ2 receptor; [^3 H]CycloFOXY displacement): 6 fold
IC50 (Low Affinity δ Receptors): 8.06 ± 0.58 nM
Ki (Low Affinity δ Receptors): 6.88 nM
lower affinity (fold) than ioxy (1) (Low Affinity δ Receptors; [^3 H]DADLE, low affinity δ): 3 fold
Ki [2]: 46.2 nM
N (slope factor) ([2]; [^3 H]DADLE, high affinity δ): 0.99 ± .07
lowered affinity / less potent (fold) than ioxy (1) ([2]; [^3 H]DADLE, high affinity δ): 4 fold
IC50 [2]: 101 ± 8.4 nM
paw withdrawal latency after i.v. injection [1]: returned to near baseline values
reversal of behavioral arrest and other opioid effects [1]: reversed in a matter of seconds
duration of reversal [1]: at least 40 min
blood brain barrier penetration [1]: getting into the brain
reversal of the effects of morphine [1]: complete reversal of the effects of morphine
IC50 (μ receptor): 7.16 ± 0.72 nM
Ki (μ receptor): 2.09 nM
N (slope factor) (μ receptor): 0.95 ± .08
lower affinity / less potent (fold) than ioxy (μ receptor): 2 fold
